Results: US11530384B2, “Use of matrix cells for preparing a micro hair follicle” (L'OREAL, priority 2015, dated 2022)
Entries after “also recorded” stand apart in the source; their conditions may differ.

Test system: matrix cells
Assay: Culture-amplification of hair matrix cells on a 3T3 feeder layer in the presence of Y27632
Type: cell-based, human
Conditions: matrix cells cultured on mitomycin-blocked 3T3 feeder layer, Green-based medium, 10 μM of Y27632
Description: Some authors have proposed culturing these cells in coculture with papilla fibroblasts. The drawback of this method is that the culture obtained is not homogeneous, the matrix cells are contaminated with the dermal fibroblasts from the papilla used in coculture (Reynolds A J, Lawrence […] Human hair follicle germinative epidermal cell culture. J Invest Dermatol. 1993 October; 101(4):634-8). Luo et al. have proposed a technique of microdissection followed by culture of the matrix cells on a plastic support (Luo et al: Methods for culturing hair follicle epithelial matrix cells; Reg. number: H1610; Nov. 5, 1996). However, this microdissection technique results in a very low yield of matrix cells. The applicant has isolated the matrix cells and developed a process for culturing these cells. […] keratinocytes until they reach confluence while forming regular clusters. The cells are amplified according to the technique of Rheinwald and Green (Cell, vol. 6, 331-344,1975) by culturing on a feeder support constituted of fibroblasts in a suitable medium known to those skilled in the art, in the presence of growth factors, in particular amino acids, serum, cholera toxin, insulin, triiodothyronine and pH buffer solution. […]

C[C@@H](N)[C@H]1CC[C@H](C(=O)Nc2ccncc2)CC1 [Y27632]
differentiation of matrix cells into keratinocytes positive for K85 K35 markers: differentiation thereof into keratinocytes that are positive for the K85 K35 markers; also recorded: differentiate into K85 K35 keratinocytes
proliferation of matrix cells in culture: considerable proliferation; also recorded: proliferate rapidly
